Reference: patent US10827753B2, “Compositions and methods for controlling nematodes” (Monsanto Technology LLC, priority 2007, dated 2020)
Marks after values point to notes of the source that are not given here.

Columns and labels:
Meloidogyne incognita [1] = assay: M. incognita miniaturized greenhouse assay on cucumber seedlings (root galling); assay type: in vivo; parameters: key to 1 ppm gall ratings / 1 ppm gall rating: mean of 3 gall ratings: 0=0-5%, 1=6-20%, 2=21-50%, 3=51-100% root galled
Procedure, shortened: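 Compound in acetone/Triton X100 stock (5 mg/mL) diluted into water with 0.015% Triton X100 and applied to sand-planted sprouted cucumber seedlings; inoculated with 500 M. incognita eggs two days after planting. Roots harvested 10–12 days later; galling scored 0–3 by % root mass galled, averaged over triplicates, plus visual root phytotoxicity rating.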

mice = settings: cited from earlier work
Meloidogyne incognita [2] = assay: Summer field evaluation of pre-plant incorporated compounds on squash; assay type: in vivo; settings: for 0-3 vigor 16 DAP / 0-3 vigor 21 DAP / feeder root (3 = ave) 31 DAP / gall % 31 DAP / root wgt (g) 31 DAP / top wgt (lbs) 31 DAP / total fruit (lbs): 4 kg (kg/ha) PPI, squash
Procedure, shortened: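 PPI simulation: compound in acetone/Triton X-100 and water mixed into 80% sand/20% silt loam with chopped galled tomato roots, filling top 15 cm of 6 replicate field plots. M. incognita eggs/larvae (100 k per plot) injected 5 cm deep; three-week-old squash cv. Liberator III planted 4 days after treatment.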

[3] = test system: Heterodera glycines (SCN); assay: Seed treatment test of soybean cyst nematode on soybean plants; assay type: in vivo
Experimental: For a given concentration the chemical is dissolved in 500 ul of acetone and one gram of cucumber seed (RKN test) or soybean seed (SCN test) is added (e.g., 20 mg active ingredient in 500 ul acetone plus 1 gram of seed). The seed solutions are agitated until all seeds were thoroughly covered with the chemical solution. The acetone is then allowed to evaporate by air drying the seeds. The seeds are planted in 2-inch pots containing sandy soil and then the pots are inoculated with 1000 Meloidogyne incognita (RKN) or 1000 Heterodera glycines (SCN) eggs per pot three days after planting. Plants are rated for galling 14 days after egg inoculation for RKN or 28 days after egg inoculation for SCN.

Meloidogyne incognita [4] = assay: Fall nematicidal field testing on squash microplots; assay type: in vivo; settings: for RG28 = % root galls at 28 days after treatment / RG43 = % root galls at 43 days after treatment: squash
Text: The test site was located at 3511 Highway F in New Melle, Mo., Saint Charles county. The soil was a native prairie/pasture covering silty clay loam soil. Holes were dug using a Bobcat 763 skid loader with a 12-inch auger to a depth of 18 inches. Total volume of each hole was about 1.2 cubic feet. Six cubic yards of topsoil and 9 tons of river sand were purchased from Dardenne Farms Topsoil. Mixing to a ratio of 4 volumes sand to 1 volume soil was accomplished using a trailer-mounted 9 cubic foot concrete mixer. Holes were filled and then re-filled 5 days later after settling. The mixture was 92.5% sand, 2.5% silt, and 5% clay. Organic matter was 0.2% and pH was 6.8.
Treatments were arranged in a block design with the blocks laid out perpendicular to the primary slope and parallel to secondary slope. There are 7 inoculated controls and 5 non-inoculated controls and the distributions of disease severity appeared independent of location.
Application rates are expressed as kg of active material per hectare, and the mg per plot is based on the surface area of the bored and filled holes (0.000008559 Ha). The DC compounds were formulated immediately before application as follows: 1) the amount required to treat all six replicates was dissolved in 300 ml of acetone, 2) for each plot 50 ml of that solution was added to a graduated cylinder with 2 ml of 12.5% Triton X100 and the volume was raised to 500 ml with tap water. The resultant mix is the same as used in the standard greenhouse assays (10% acetone, 0.05%×100). The oxamyl treatments were prepared from Vydate 2 L formulated the same way. The 500 ml was placed in a watering can and the entire volume was evenly sprinkled over the surface of the plot. No runoff occurred and pooling, if any, was short lived. The final drench volume was 0.58 ml/cm^2, compared to 0.2 ml/cm^2 used in our greenhouse, however the microplots are much deeper so the drench volume applied per soil volume treated is roughly the same.
Meloidogyne incognita eggs were harvested over a two week period and stored at approximately 5° C. until needed. A stock of 5.6 million vermiform eggs was adjusted to 9000/ml in 620 ml. One day after treatment, two holes were made in each plot about 7 cm apart and equidistant from the squash plants. Five ml of egg suspension was pipetted into each hole, which was then sealed and the plot lightly watered. A total of 90,000 vermiform eggs were added to each plot.
The first root evaluation was at 28 DAT. The tops were cut off and weighed immediately in the field, and the roots were carefully dug out so as not to disturb the remaining plant.

[5] = test system: CD-1/Swiss derived albino mice; assay type: in vivo; settings: 500 mg/kg oral, three female mice, observed up to 14 days
Experimental: Acute oral toxicity testing was performed in mice in accordance with test method P203.UDP, as administered by Eurofins/Product Safety Laboratories (Dayton, N.J.). CD-1/Swiss derived albino mice were obtained and group housed in suspended solid bottom caging. The mice were fed rodent chow and filtered tap water was supplied ad libitum. Following acclimation to the laboratory setting, a group of animals was fasted overnight by removing food from the cages. After the fasting period, three female mice were selected based on vitality and initial body weights. The individual compound doses were calculated from these body weights.
The test substance was prepared as a 1% (50 mg/kg) or 5% (500 mg/kg) weight to weight (w/w) mixture in a 0.5% w/w solution of carboxymethylcellulose (CMC) in distilled water. A tissue homogenizer was used to create a homogeneous mixture. A dose of 50 or 500 mg/kg was administered to three healthy mice per dose level by oral intubation using a ball-tipped gavage needle attached to a syringe. After administration, the animals were returned to their cages, and feed was replaced immediately after dosing.
Body weights were recorded prior to initiation and on Days 7 and 14 or a soon as possible after death.

[6] = test system: sting (Belonolaimus longicaudatus) nematodes; assay: Sting nematode bench top soil assay; assay type: in vivo
Experimental: Populations of sting (Belonolaimus longicaudatus) nematodes are maintained on St. Augustine turf grass on soil in 15-cm pots. At test initiation the turf is removed from the pots and the soil containing nematode eggs, juveniles, and adults is subdivided into pots each containing a volume of 125 cm^3′ The compounds to be tested are dissolved in 3 ml of acetone using 3, 6, or 15 mg to achieve equivalent surface area application rates of 2, 4, or 10 kg/ha, respectively. The 3 ml acetone stock solution is added to 30 ml of water, and 5 ml of that solution is used to drench each of 6 replicate test pots prepared as described above. The treated pots containing nematodes are incubated in the laboratory at ambient temperature of approximately 25° C. After 3 days the soil from each pot is washed onto a modified Baermann apparatus comprised of a screen supporting a layer of filter paper on which the soil sample is placed and set in a dish of water. The samples are then incubated at 25° C. for 24 hours to allow the live nematodes to migrate through the paper and screen and into a water reservoir to be collected for counting with a light microscope. Nematodes that have been killed or immobilized by the test compounds are not able to migrate into the reservoir.

[7] = test system: caspase-3 in rat hepatoma derived H4IIE cells; assay: Caspase-3 activity (DEVD-AMC) after compound exposure in H4IIE cells; assay type: cell-based; settings: concentrations up to 300 μM
Experimental: Caspase 3 cleaves the tetrapeptide between D and AMC, thus releasing the fluorogenic […] AMC. Following the test article exposure to cells in 96-well plates, medium was aspirated from plates and PBS added to each well. Plates were stored at −80° C. to lyse cells and store samples until further analysis. On the day of analysis, plates were removed from freezer and thawed. Caspase buffer with fluorescent substrate was added to each well and incubated at room temperature for one hour. AMC release was measured in a spectrofluorometer at an excitation wavelength of 360 nm and an emission wavelength of 460 nm. Values are expressed as relative fluorescent units (RFU).

root knot nematode = assay: Pre-plant incorporated (PPI) greenhouse test of root knot nematode on cucumber plants; assay type: in vivo, Meloidogyne incognita; settings: Meloidogyne incognita, fourteen day pre-plant incorporated, test b, read-out: percent control (galling reduction) relative to the control blank treatment; for pest or weed control at 4000 g/ha: 4 kg/ha rate; for pest or weed control at 8000 g/ha: 8 ka/ha rate
Text: The PPI test examines the effect of pre-incorporation of compounds in soil and longer aging to simulate in furrow methods of nematicide application in the field. The PPI test exposes compounds to a higher volume of soil and drying which can result in more severe soil binding. Compounds are also aged for longer periods which can lead to more extensive biotic and abiotic degradation further limiting activity.
The chemically treated soil (sandy soil mix) for all treatment days (e.g., 7 days, 14 days, 21 days) treatments is potted into their appropriate pots. On the same day the 7 day treatment pots are seeded. One week later eggs are applied and 14 days after egg application the test is harvested. The 14 day treatments are planted 7 days after the first planting. The 14 day planting and 7 day inoculation happen on the same day. One week later the 14 day treatments are inoculated with eggs. These are harvested 14 days after the inoculation. The 21 day treatments are planted 14 days after the first planting. The 14 day inoculation and 21 day planting are done on the same day. One week later the 21 day plants are inoculated with eggs. The 7 day treatment is harvested the same day as the 21 day inoculation. Fourteen days after inoculation the 21 day plants are harvested.
For each compound a stock is prepared using 4 mg material in 4 ml of acetone. The soil is mixed by placing 80 ml of field soil and 320 ml of sand in a plastic bag and mixing well. The formulation for treatment is done by adding 2.13 ml (8 kg/ha rate), 1.06 ml (4 kg/ha rate) or 0.53 ml (2 kg/ha rate) to a vial and raising it with 10 ml in 0.05%×100. Soil is then treated by adding the entire 10 ml to the 400 ml of mix in the bag. The treated soil is immediately mixed well in the sealed bag to distribute the compound evenly. Approximately 95 ml is used to fill each 2-inch square pot up to the top with some soil compression and flattening. For each compound and for the control treatments 4 pots are filled. All pots are watered until moist but with no run-out through the bottom.
The PPI test simulates 8, 4 and 2 kg/ha rates incorporated 15 cm deep in the field and is equivalent to the 2, 1 and 0.5 kg/ha drench application rates in the standard 2-inch pot cucumber greenhouse assay.

SMILES	1 ppm gall ratings (Meloidogyne incognita [1]; Table 1B test e)	oral LD50 in mice (mice) [mg/kg]	0-3 vigor 16 DAP (Meloidogyne incognita [2])	0-3 vigor 21 DAP (Meloidogyne incognita [2])	feeder root (3 = ave) 31 DAP (Meloidogyne incognita [2])	gall % 31 DAP (Meloidogyne incognita [2]) [%]	root wgt (g) 31 DAP (Meloidogyne incognita [2]) [g]	top wgt (lbs) 31 DAP (Meloidogyne incognita [2]) [lbs]	total fruit (lbs) (Meloidogyne incognita [2])	RG28 = % root galls at 28 days after treatment (Meloidogyne incognita [4]; 2 kg ai/ha drench) [%]	RG43 = % root galls at 43 days after treatment (Meloidogyne incognita [4]; 2 kg ai/ha drench) [%]	induction of caspase-3 (apoptosis marker) [7]	pest or weed control at 4000 g/ha (root knot nematode) [%]	pest or weed control at 8000 g/ha (root knot nematode) [%]	other results
CNC(=O)O/N=C(\SC)C(=O)N(C)C [Oxamyl, oxamyl, reference compound]	1 (1=6-20%)	2.3	2.7	2.5	3.0	85	37.0	1.16	1.09	45.0	42.3	–	–	–	gall ratings (Meloidogyne incognita [1]; 1 ppm (oxamyl standard of Table 1A), average of triplicate, scale 0-3): 0.67 (1 ppm); 1 ppm gall ratings (Meloidogyne incognita [1]; Table 1B test a): 0.67; 1 ppm gall ratings (Meloidogyne incognita [1]; Table 1B test b): 1 (1=6-20%); 1 ppm gall ratings (Meloidogyne incognita [1]; Table 1B test c): 1.33; 1 ppm gall ratings (Meloidogyne incognita [1]; Table 1B test d): 1.33; 1 ppm gall rating (Meloidogyne incognita [1]; Table 1C test a): 1.33; 1 ppm gall rating (Meloidogyne incognita [1]; Table 1C test b): 1 (1=6-20%); 1 ppm gall rating (Meloidogyne incognita [1]; Table 1C test c): 0.67^c; 1 ppm gall rating (Meloidogyne incognita [1]; Table 1D test a): 1.33^a,; 1 ppm gall rating (Meloidogyne incognita [1]; Table 1D test b): 1^b (1=6-20%); percent cyst reduction relative to control blank treatment ([3]; 0.375 mg al/gram seed, test b): −4^b percent; percent cyst reduction relative to control blank treatment ([3]; 1.5 mg al/gram seed, test b): 71^b percent; RG28 = % root galls at 28 days after treatment (Meloidogyne incognita [4]; 5 kg ai/ha drench): 10.5%; RG43 = % root galls at 43 days after treatment (Meloidogyne incognita [4]; 5 kg ai/ha drench): 17.3%
CS/C(C)=N\OC(=O)N(C)SN(C)C(=O)O/N=C(\C)SC [Thiodicarb]	–	–	–	–	–	–	–	–	–	–	–	–	–	–	percent cyst reduction relative to control blank treatment ([3]; 0.375 mg al/gram seed, test a): 6^a percent; percent cyst reduction relative to control blank treatment ([3]; 1.5 mg al/gram seed, test a): −23^a percent
CNC(=O)O/N=C/C(C)(C)SC [aldicarb]	–	0.3	–	–	–	–	–	–	–	–	–	–	–	–	–
c1ccc(-c2cnc(-c3cccs3)o2)cc1 [compound 4417]	–	–	–	–	–	–	–	–	–	25.5	38.2	–	–	–	8 ppm gall ratings (Meloidogyne incognita [1]; 8 ppm, average of triplicate gall rating, scale 0-3 (% root mass galled)): 0.33; mortality, signs of gross toxicity and behavioral changes [5]: One animal died within four days; Number of nematodes recovered from treated soil after 3 days incubation with the compound ([6]; 2 kg/ha): 24; Number of nematodes recovered from treated soil after 3 days incubation with the compound ([6]; 4 kg/ha): 13; Number of nematodes recovered from treated soil after 3 days incubation with the compound ([6]; 10 kg/ha): 7; root weights (in words) (Meloidogyne incognita [4]; 2 kg/ha, 28 DAT): not affected; top weights (in words) (Meloidogyne incognita [4]; 2 kg/ha, 28 DAT): reduction in top weights; Leaf diameter of the first true leaves (Meloidogyne incognita [4]; 2 kg/ha, five days after treatment (5 DAT)): slight reduction; phytotoxicity on squash seedlings (Meloidogyne incognita [4]; 2 kg/ha, two days after treatment): slight phytotoxicity
Fc1cc(Cl)ccc1-c1cnc(-c2cccs2)o1 [compound 5915]	0.33^e	–	–	–	–	–	–	–	–	–	–	no induction of caspase-3	70	99	–
Cc1cc(Cl)ccc1-c1nsc(-c2ccco2)n1 [compound 5938]	0.67^e	–	2.5	2.7	2.7	9	24.1	1.60	1.22	–	–	no induction of caspase-3	90	100	control of M. incognita (in words) (Meloidogyne incognita [2]; PPI application at 4 kg/ha): excellent control
